Assays:
[1] = Table 2, cited from earlier work; for pH range: acid-base indicator
[2] = tested on: Alcaligenes odorans 33585; test: Pattern of inhibition using silicone-emulsion CO2 sensors (Table 3); assay type: cell-based; conditions: 4 h, 37° C., 5×10^7 CFU/ml
Source text: (§1) Microbial identification using the described CO2 sensors can also be based on the principle of growth inhibition. This system differs from the classical biochemical identification systems, as identification is based on selective growth inhibition by inhibitory agents, such as dyes, antibiotics, and other substances. Once again, the production of CO2 is the measure of growth. The growth pattern produced in the presence of these inhibitory agents identifies the species of the test microorganism. The amount of growth is compared with a growth control well that contains no inhibitor. A profile is derived using a two-stage quadratic discriminate analysis based on the results derived from the battery of inhibitory agents.
(§2) Microtiter plates (96 flat bottom wells) containing 0.05% xylenol blue silicone-emulsion sensors were filled with 100 microliters of microbial growth medium containing no inhibitors (growth control wells) and eighteen different dyes, antibiotics, and other inhibitory substances. Final concentrations of the inhibitors were achieved after addition of 100 microliters of inoculum (final inoculum of 5×10^7 CFU/ml) of the representative microorganisms.
(§3) After inoculating the microtiter tray, it was sealed with a pressure sensitive plastic plate sealer and initial readings were taken with a reflectance reader. The plate was then placed into a 37° C. incubator. After four hours incubation, the plate was removed and final reflectance readings were taken.

Escherichia coli 33582 = test: as above; assay type: cell-based; conditions: 4 h, 37° C., 5×10^7 CFU/ml
Source text: as §1, §2, §3

Proteus mirabilis 33583 = test: as above; assay type: cell-based; conditions: 4 h, 37° C., 5×10^7 CFU/ml
Source text: as §1, §2, §3

[3] = tested on: Pseudomonas aeruginosa 33584; test: as above; assay type: cell-based; conditions: 4 h, 37° C., 5×10^7 CFU/ml
Source text: as §1, §2, §3

Molecule: Cc1c(C2(c3cc(Br)c(O)c(Br)c3C)OS(=O)(=O)c3ccccc32)cc(Br)c(O)c1Br [Bromocresol green (blue), Bromocresol green]
- pH range [1]: 3.6-5.2 pH

Molecule: Cc1cc(C2(c3cc(C)c(O)c(Br)c3)OS(=O)(=O)c3ccccc32)cc(Br)c1O [Bromocresol purple]
- pH range [1]: 5.2-6.8 pH

Molecule: O=S1(=O)OC(c2cc(Br)c(O)c(Br)c2)(c2cc(Br)c(O)c(Br)c2)c2ccccc21 [Bromophenol blue]
- pH range [1]: 3.0-4.6 pH

Molecule: Cc1c(C2(c3cc(C(C)C)c(O)c(Br)c3C)OS(=O)(=O)c3ccccc32)cc(C(C)C)c(O)c1Br [Bromothymol blue]
- pH range [1]: 6.0-7.6 pH

Molecule: CC1(C)S[C@@H]2[C@H](NC(=O)C(C(=O)O)c3ccccc3)C(=O)N2[C@H]1C(=O)O (stereo partly drawn) [Carbenicillin]
- Percent growth as compared to a growth control without antibiotics ([2]; 40 mcg): 77%
- Percent growth as compared to a growth control without antibiotics (Escherichia coli 33582; 40 mcg): 54%
- Percent growth as compared to a growth control without antibiotics (Proteus mirabilis 33583; 40 mcg): 69%
- Percent growth as compared to a growth control without antibiotics ([3]; 40 mcg): 89%

Molecule: CC(=O)OCC1=C(C(=O)O)N2C(=O)[C@@H](NC(=O)Cc3cccs3)[C@H]2SC1 [Cephalothin]
- Percent growth as compared to a growth control without antibiotics ([2]; 13.5 mcg): 66%
- Percent growth as compared to a growth control without antibiotics (Escherichia coli 33582; 13.5 mcg): 53%
- Percent growth as compared to a growth control without antibiotics (Proteus mirabilis 33583; 13.5 mcg): 26%
- Percent growth as compared to a growth control without antibiotics ([3]; 13.5 mcg): 108%

Molecule: O=S1(=O)OC(c2ccc(O)c(Cl)c2)(c2ccc(O)c(Cl)c2)c2ccccc21 [Chlorophenol red]
- pH range [1]: 4.8-6.4 pH

Molecule: [Cl][Co][Cl] [Cobalt chloride]
- Percent growth as compared to a growth control without antibiotics ([2]; 205 mcg): 35%
- Percent growth as compared to a growth control without antibiotics (Escherichia coli 33582; 205 mcg): 27%
- Percent growth as compared to a growth control without antibiotics (Proteus mirabilis 33583; 205 mcg): 17%
- Percent growth as compared to a growth control without antibiotics ([3]; 205 mcg): 52%

Molecule: Nc1c(/N=N/c2ccc(-c3ccc(/N=N/c4cc(S(=O)(=O)O)c5ccccc5c4N)cc3)cc2)cc(S(=O)(=O)O)c2ccccc12 [Congo red]
- pH range [1]: 3.0-5.0 pH

Molecule: Cc1cc(C2(c3ccc(O)c(C)c3)OS(=O)(=O)c3ccccc32)ccc1O [Cresol red]
- pH range (acid range) [1]: 0.2-1.8 pH
- pH range (basic range) [1]: 7.2-8.8 pH

Molecule: N[C@@H]1CON=C1O [Cycloserine]
- Percent growth as compared to a growth control without antibiotics ([2]; 78 mcg): 116%
- Percent growth as compared to a growth control without antibiotics ([2]; 240 mcg): 27%
- Percent growth as compared to a growth control without antibiotics (Escherichia coli 33582; 78 mcg): 13%
- Percent growth as compared to a growth control without antibiotics (Escherichia coli 33582; 240 mcg): 8%
- Percent growth as compared to a growth control without antibiotics (Proteus mirabilis 33583; 78 mcg): 107%
- Percent growth as compared to a growth control without antibiotics (Proteus mirabilis 33583; 240 mcg): 26%
- Percent growth as compared to a growth control without antibiotics ([3]; 78 mcg): 56%
- Percent growth as compared to a growth control without antibiotics ([3]; 240 mcg): 66%

Molecule: O=C(O)c1cc(Br)cc(Br)c1O [Dibromosalicyclic acid]
- Percent growth as compared to a growth control without antibiotics ([2]; 750 mcg): 25%
- Percent growth as compared to a growth control without antibiotics (Escherichia coli 33582; 750 mcg): 83%
- Percent growth as compared to a growth control without antibiotics (Proteus mirabilis 33583; 750 mcg): 38%
- Percent growth as compared to a growth control without antibiotics ([3]; 750 mcg): 88%

Molecule: CCCCCCCCCCCCN [Dodecylamine]
- Percent growth as compared to a growth control without antibiotics ([2]; 18.75 mcg): 106%
- Percent growth as compared to a growth control without antibiotics (Escherichia coli 33582; 18.75 mcg): 99%
- Percent growth as compared to a growth control without antibiotics (Proteus mirabilis 33583; 18.75 mcg): 108%
- Percent growth as compared to a growth control without antibiotics ([3]; 18.75 mcg): 118%

Molecule: O=c1[nH]c(=O)n([C@H]2C[C@H](O)[C@@H](CO)O2)cc1F [Floxuridine]
- Percent growth as compared to a growth control without antibiotics ([2]; 36 mcg): 75%
- Percent growth as compared to a growth control without antibiotics (Escherichia coli 33582; 36 mcg): 55%
- Percent growth as compared to a growth control without antibiotics (Proteus mirabilis 33583; 36 mcg): 35%
- Percent growth as compared to a growth control without antibiotics ([3]; 36 mcg): 79%

Molecule: CN(C)c1ccc(C(=C2C=CC(=[N+](C)C)C=C2)c2ccccc2)cc1 [Malachite green]
- Percent growth as compared to a growth control without antibiotics ([2]; 3 mcg): 66%
- Percent growth as compared to a growth control without antibiotics (Escherichia coli 33582; 3 mcg): 40%
- Percent growth as compared to a growth control without antibiotics (Proteus mirabilis 33583; 3 mcg): 107%
- Percent growth as compared to a growth control without antibiotics ([3]; 3 mcg): 87%

Molecule: CN(C)c1ccc(N=Nc2ccccc2)cc1 [Methyl Yellow]
- pH range [1]: 2.9-4.0 pH

Molecule: CN(C)c1ccc(N=Nc2ccc(S(=O)(=O)O)cc2)cc1 [Methyl orange]
- pH range [1]: 3.1-4.4 pH

Molecule: CN(C)c1ccc(/N=N/c2ccccc2C(=O)O)cc1 [Methyl red]
- pH range [1]: 4.2-6.3 pH

Molecule: CN(C)c1ccc2nc3ccc(=[N+](C)C)cc-3sc2c1 [Methylene blue]
- Percent growth as compared to a growth control without antibiotics ([2]; 255 mcg): 56%
- Percent growth as compared to a growth control without antibiotics (Escherichia coli 33582; 255 mcg): 20%
- Percent growth as compared to a growth control without antibiotics (Proteus mirabilis 33583; 255 mcg): 80%
- Percent growth as compared to a growth control without antibiotics ([3]; 255 mcg): 90%

Molecule: Cc1cc2nc3ccc(N(C)C)cc3nc2cc1N [Neutral red]
- pH range [1]: 6.8-8.0 pH

Molecule: CO[C@@H]1[C@@H](OC(N)=O)[C@@H](O)[C@H](Oc2ccc3c(O)c(NC(=O)c4ccc(O)c(CC=C(C)C)c4)c(=O)oc3c2C)OC1(C)C [Novobiocin]
- Percent growth as compared to a growth control without antibiotics ([2]; 48 mcg): 16%
- Percent growth as compared to a growth control without antibiotics (Escherichia coli 33582; 48 mcg): 9%
- Percent growth as compared to a growth control without antibiotics (Proteus mirabilis 33583; 48 mcg): 48%
- Percent growth as compared to a growth control without antibiotics ([3]; 48 mcg): 85%

Molecule: [O-][n+]1ccccc1SSc1cccc[n+]1[O-] [Omadine disulfide]
- Percent growth as compared to a growth control without antibiotics ([2]; 5.5 mcg): 36%
- Percent growth as compared to a growth control without antibiotics (Escherichia coli 33582; 5.5 mcg): 10%
- Percent growth as compared to a growth control without antibiotics (Proteus mirabilis 33583; 5.5 mcg): 71%
- Percent growth as compared to a growth control without antibiotics ([3]; 5.5 mcg): 94%

Molecule: O=S1(=O)OC(c2ccc(O)cc2)(c2ccc(O)cc2)c2ccccc21 [Phenol red]
- pH range [1]: 6.8-8.4 pH

Molecule: O=C1OC(c2ccc(O)cc2)(c2ccc(O)cc2)c2ccccc21 [Phenolphthalein]
- pH range [1]: 8.3-10.0 pH

Molecule: [N-]=[N+]=[N-] [Sodium azide]
- Percent growth as compared to a growth control without antibiotics ([2]; 75 mcg): 47%
- Percent growth as compared to a growth control without antibiotics (Escherichia coli 33582; 75 mcg): 6%
- Percent growth as compared to a growth control without antibiotics (Proteus mirabilis 33583; 75 mcg): 35%
- Percent growth as compared to a growth control without antibiotics ([3]; 75 mcg): 47%

Molecule: O=S1(=O)OC(c2cc(Br)c(O)c(Br)c2)(c2cc(Br)c(O)c(Br)c2)c2c(Br)c(Br)c(Br)c(Br)c21 [Tetrabromophenol blue]
- pH range [1]: 3.0-4.6 pH

Molecule: CC(=O)[O-].[Tl+] [Thallous acetate]
- Percent growth as compared to a growth control without antibiotics ([2]; 150 mcg): 47%
- Percent growth as compared to a growth control without antibiotics (Escherichia coli 33582; 150 mcg): 40%
- Percent growth as compared to a growth control without antibiotics (Proteus mirabilis 33583; 150 mcg): 68%
- Percent growth as compared to a growth control without antibiotics ([3]; 150 mcg): 34%

Molecule: Cc1cc(O)c(C(C)C)cc1C1(c2cc(C(C)C)c(O)cc2C)OS(=O)(=O)c2ccccc21 [Thymol blue]
- pH range (acid range) [1]: 1.2-2.8 pH
- pH range (basic range) [1]: 8.0-9.6 pH

Molecule: Cc1cc(O)c(C(C)C)cc1C1(c2cc(C(C)C)c(O)cc2C)OC(=O)c2ccccc21 [Thymolphthalein]
- pH range [1]: 9.3-10.5 pH

Molecule: O=S(=O)(O)c1ccc(N=Nc2ccc(Nc3ccccc3)cc2)cc1 [Tropaeolin OO]
- pH range [1]: 1.3-3.0 pH

Molecule: O=S(=O)(O)c1ccc(N=Nc2ccc(O)cc2O)cc1 [Tropaeolin O]
- pH range [1]: 11.1-12.7 pH

Molecule: Cc1cc(O)ccc1C1(c2ccc(O)cc2C)OS(=O)(=O)c2ccccc21 [m-Cresol purple]
- pH range (acid range) [1]: 1.0-2.6 pH
- pH range (basic range) [1]: 7.6-9.2 pH

Molecule: Acriflavine
- Percent growth as compared to a growth control without antibiotics ([2]; 30 mcg): 55%
- Percent growth as compared to a growth control without antibiotics (Escherichia coli 33582; 30 mcg): 5%
- Percent growth as compared to a growth control without antibiotics (Proteus mirabilis 33583; 30 mcg): 68%
- Percent growth as compared to a growth control without antibiotics ([3]; 30 mcg): 84%

Molecule: Alizarin yellow
- pH range [1]: 10.1-12.0 pH

Molecule: Azolitmin [Azolitmin (litmus)]
- pH range [1]: 5.0-8.0 pH

— patent US5856175A, “Device for detecting microorganisms” (priority 1996, dated 1999)
